Here are results for 13 compounds from ChEMBL document CHEMBL3603837, “Indole Glucocorticoid Receptor Antagonists Active in a Model of Dyslipidemia Act via a Unique Association with an Agonist Binding Site” (J Med Chem, 2015).

As usually defined, the pKi is −log10 of the Ki, conventionally taken in molar units. A lower pKi goes with a large Ki.

pKi: −log10 of the molar value. Active and inactive are the calls of the source. The calls are words filed in the database; no cut-off is given here.

Experiment [1] addresses T1, Estrogen receptor (Homo sapiens) (UniProt P03372).
T1 sequence (whole entry): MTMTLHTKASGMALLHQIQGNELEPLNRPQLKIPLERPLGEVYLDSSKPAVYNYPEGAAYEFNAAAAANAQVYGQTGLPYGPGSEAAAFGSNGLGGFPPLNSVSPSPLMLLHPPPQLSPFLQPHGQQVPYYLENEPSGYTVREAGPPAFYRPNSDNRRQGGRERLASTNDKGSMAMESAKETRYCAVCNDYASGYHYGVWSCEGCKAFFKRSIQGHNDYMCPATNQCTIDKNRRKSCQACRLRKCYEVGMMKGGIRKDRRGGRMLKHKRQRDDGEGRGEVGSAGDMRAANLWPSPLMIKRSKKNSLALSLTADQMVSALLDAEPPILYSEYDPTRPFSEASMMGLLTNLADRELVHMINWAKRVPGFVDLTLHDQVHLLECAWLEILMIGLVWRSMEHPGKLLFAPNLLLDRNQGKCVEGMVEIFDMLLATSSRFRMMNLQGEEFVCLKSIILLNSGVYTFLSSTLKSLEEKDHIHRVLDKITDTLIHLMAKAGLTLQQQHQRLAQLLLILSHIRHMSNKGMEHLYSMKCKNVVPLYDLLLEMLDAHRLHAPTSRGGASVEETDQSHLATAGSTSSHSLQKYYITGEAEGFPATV
Nature of the experiment: Binding affinity to human estrogen receptor expressed in HEK293 cells by scintillation counting based radioligand competition binding assay. Type of experiment: cell-based. (In a radioligand displacement assay an active substance lowers the binding of a labelled ligand.)

The target in experiment [2] is T2, Mineralocorticoid receptor (Homo sapiens, UniProt P08235).
T2 sequence (P08235 whole entry): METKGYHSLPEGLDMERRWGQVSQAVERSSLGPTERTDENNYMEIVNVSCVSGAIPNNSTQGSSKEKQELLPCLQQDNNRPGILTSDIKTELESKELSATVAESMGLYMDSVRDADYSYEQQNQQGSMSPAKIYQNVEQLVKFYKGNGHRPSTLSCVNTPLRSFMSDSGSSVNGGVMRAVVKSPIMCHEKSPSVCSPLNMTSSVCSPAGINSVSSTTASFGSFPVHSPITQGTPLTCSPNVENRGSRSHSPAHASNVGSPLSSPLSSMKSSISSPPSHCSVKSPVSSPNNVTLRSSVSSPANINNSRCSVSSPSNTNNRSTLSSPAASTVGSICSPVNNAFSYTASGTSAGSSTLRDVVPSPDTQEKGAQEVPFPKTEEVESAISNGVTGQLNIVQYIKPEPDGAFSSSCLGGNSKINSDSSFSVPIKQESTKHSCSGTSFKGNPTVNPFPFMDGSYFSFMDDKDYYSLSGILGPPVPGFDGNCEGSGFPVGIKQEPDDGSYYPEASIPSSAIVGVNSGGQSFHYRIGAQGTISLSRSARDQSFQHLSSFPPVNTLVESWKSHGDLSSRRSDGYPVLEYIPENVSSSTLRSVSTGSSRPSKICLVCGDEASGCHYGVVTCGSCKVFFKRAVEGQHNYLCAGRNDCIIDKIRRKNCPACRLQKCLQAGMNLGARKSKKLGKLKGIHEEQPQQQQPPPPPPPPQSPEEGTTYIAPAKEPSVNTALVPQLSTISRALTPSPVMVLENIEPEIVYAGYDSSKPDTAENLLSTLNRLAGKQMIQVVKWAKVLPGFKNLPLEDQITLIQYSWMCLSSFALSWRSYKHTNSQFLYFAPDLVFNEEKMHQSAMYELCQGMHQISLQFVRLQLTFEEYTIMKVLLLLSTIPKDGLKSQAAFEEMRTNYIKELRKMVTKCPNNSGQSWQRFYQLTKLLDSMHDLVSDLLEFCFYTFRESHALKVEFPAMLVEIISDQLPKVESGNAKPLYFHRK
Nature of the experiment: biochemical.
Description: Displacement of [3H]-aldosterone from human mineralocorticoid receptor expressed in HEK293 cells by scintillation counting based radioligand competition binding assay

A further experiment concerns the target T3, Progesterone receptor (Homo sapiens, UniProt P06401).
T3 sequence (P06401 whole entry): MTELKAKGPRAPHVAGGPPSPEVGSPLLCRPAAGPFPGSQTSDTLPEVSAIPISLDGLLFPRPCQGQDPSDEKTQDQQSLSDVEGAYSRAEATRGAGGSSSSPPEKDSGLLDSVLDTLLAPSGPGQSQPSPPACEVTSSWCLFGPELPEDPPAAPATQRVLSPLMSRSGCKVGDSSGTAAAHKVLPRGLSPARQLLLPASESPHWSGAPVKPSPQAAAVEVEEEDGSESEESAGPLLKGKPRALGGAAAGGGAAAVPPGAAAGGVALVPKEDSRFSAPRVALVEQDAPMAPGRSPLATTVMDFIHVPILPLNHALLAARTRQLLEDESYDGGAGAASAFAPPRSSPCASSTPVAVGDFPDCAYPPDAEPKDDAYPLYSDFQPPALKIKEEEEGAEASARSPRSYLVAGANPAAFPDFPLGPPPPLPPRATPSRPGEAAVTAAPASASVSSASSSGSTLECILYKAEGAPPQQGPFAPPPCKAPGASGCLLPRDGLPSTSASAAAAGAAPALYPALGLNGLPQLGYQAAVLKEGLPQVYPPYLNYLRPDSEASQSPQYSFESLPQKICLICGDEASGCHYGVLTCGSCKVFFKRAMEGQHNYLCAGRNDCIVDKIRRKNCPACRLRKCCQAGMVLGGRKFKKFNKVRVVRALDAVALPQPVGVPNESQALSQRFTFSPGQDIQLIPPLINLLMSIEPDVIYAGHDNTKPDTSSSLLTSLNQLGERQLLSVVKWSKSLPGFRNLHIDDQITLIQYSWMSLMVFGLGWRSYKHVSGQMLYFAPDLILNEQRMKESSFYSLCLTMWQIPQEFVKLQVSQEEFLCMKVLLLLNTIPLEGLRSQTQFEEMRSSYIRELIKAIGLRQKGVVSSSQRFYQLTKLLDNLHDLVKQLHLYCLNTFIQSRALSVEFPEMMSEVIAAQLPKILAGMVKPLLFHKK
Nature of the experiment: Displacement of [3H]-methyltrienolone from human progesterone receptor expressed in HEK293 cells by scintillation counting based radioligand competition binding assay.

For the compound `COc1cc(F)ccc1-c1c(CN(C)Cc2ccccc2)[nH]c2c(NS(C)(=O)=O)cc(C(C)C)cc12`, the outcome in experiment [1] was inactive. Besides, the pKi is 5.80 in experiment [2] and 7.19 at Progesterone receptor.
Taken in the same sequence, the figures for `COc1cc(F)ccc1-c1c(CN(C)Cc2ccccc2)[nH]c2c(N)cc(F)cc12` were “inactive”, 5.67 and 5.38.
Turning to `COc1cc(F)ccc1-c1c(C)[nH]c2c(NS(C)(=O)=O)cc(F)cc12`, the result in experiment [1] was inactive. The values for the pKi (in experiment [2]; on Progesterone receptor) were 7.35 and 7.69, respectively.
For `COc1ccc(F)cc1-c1c(-c2ccccc2)[nH]c2c(NS(C)(=O)=O)cccc12`, the outcome in experiment [1] was inactive. In addition, the pKi is 5.41 in experiment [2] and 7.35 at Progesterone receptor.
Regarding `COc1cc(NS(C)(=O)=O)c2[nH]c(C)c(-c3cc(F)ccc3OC)c2c1`, the outcome in experiment [1] was inactive. Besides, the pKi in experiment [2] was 7.42; at Progesterone receptor it was 7.65.
Consider `CS(=O)(=O)Nc1cccc2c(-c3ccc(F)cc3)c[nH]c12`, for which, in experiment [1], the result was inactive. The pKi in experiment [2] was 6.65; on Progesterone receptor, 7.54.
In the same order, the values of `CS(=O)(=O)Nc1cccc2c(-c3cccc(Cl)c3)c[nH]c12` are “inactive”, 8.68 and 8.26.
As for `COc1cc(F)ccc1-c1c(CN(C)Cc2ccccc2)[nH]c2c(NS(C)(=O)=O)cc(C(C)(C)C)cc12`, the result in experiment [1] was inactive. Moreover, the pKi in experiment [2] is 5.41; at Progesterone receptor, 6.60.
For `COc1ccccc1-c1c[nH]c2c(NS(C)(=O)=O)cccc12`, in experiment [1], the result was inactive. The pKi on Progesterone receptor is 7.07.
Take `COc1cc(NS(C)(=O)=O)c2[nH]c(C)c(-c3ccccc3)c2c1`: the result in experiment [1] was inactive. Moreover, the pKi is 5.41 in experiment [2] and 5.40 on Progesterone receptor.
`COc1ccc(Cl)cc1-c1c[nH]c2c(NS(C)(=O)=O)cccc12`: the outcome in experiment [1] was inactive. For the same compound, the pKi in experiment [2] was 5.35; on Progesterone receptor it was 6.63.
For the compound `COc1cc(F)ccc1-c1c(Cc2ccccc2)[nH]c2c(NS(C)(=O)=O)cc(C(C)C)cc12`, the outcome in experiment [1] was inactive. In addition, the pKi in experiment [2] was 5.37; at Progesterone receptor, 5.40.
Taken in the same sequence, the figures for `CS(=O)(=O)Nc1cccc2cc[nH]c12` were “inactive”, 6.02 and 6.98.
